Measured values as given in patent US20130101530A1, “ANTIMICROBIAL PRESERVATIVE COMPOSITIONS FOR PERSONAL CARE PRODUCTS” (GALAXY SURFACTANTS LTD., priority 2011, published 2013).
Like-named read-outs stand apart in the source and are kept apart here.

Key:
[1] = test system: Bacillus subtilis ATCC 9372; assay: microbe, parasite or virus in culture; type: cell-based; conditions: ATCC9372
[2] = test system: Staphylococcus aureus ATCC 6538S; assay: Minimum inhibitory concentration; type: cell-based; conditions: ATCC6538S
[3] = test system: Escherichia coli ATCC 10142; assay: Minimum inhibitory concentration; type: cell-based; conditions: ATCC10142
[4] = Reduction in surface tension of water; type: physicochemical
Procedure: The ‘liquid alcohol ether’ as used herein like 2-ethyl hexyl glyceryl ether is also a surfactant where the hydrophobe is provided by octyl group and the hydrophilic portion is the two hydroxyl groups of glycerine moiety and the ether linkage.
A mixture of octanoic acid (114 g, […]), BHT (0.3 g) and monoethanol amine (61 g, […]) is stirred under nitrogen blanket in a pressure vessel at 140° C. for 4 hr and then the temperature is raised to 165° C. for additional one hour. At this stage, acid value is normally found to be around 5 or less. The reaction was then cooled under mild vacuum to 60° C. and the molten mass is converted into off-white flakes (148 g, 95%) by pouring it on a glass plate. (Melting point 62-64° C., acid value 5, IR (KBr): 1640 cm^−1 (carbonyl of amide), 1556 cm^−1, 2919 cm^−1, 3289 cm^−1 (NH of amide) Reduction is surface tension of water: 0.05% solution, 38.5 dyne/cm, 0.1% solution 30.5 dyne/cm.

[5] = test system: Aspergillus niger ATCC 16404; assay: Minimum inhibitory concentration; type: cell-based; conditions: ATCC16404, Aspergillus niger
[6] = test system: all types of microbes (Gram positive, Gram negative bacteria, yeast and mould; the chosen eight organisms); assay: Minimum inhibitory concentration, whole panel; type: cell-based; conditions: up to 1.0% concentration; bacteria, yeast and mould
[7] = test system: Propionibacterium acnes MTCC 1951; assay: Minimum inhibitory concentration; type: cell-based; conditions: Cutibacterium acnes, MTCC1951
[8] = test system: Pseudomonas aeruginosa Immuno type IV; assay: Minimum inhibitory concentration; type: cell-based
[9] = test system: Malassezia furfur MTCC 1374; assay: Minimum inhibitory concentration; type: cell-based; conditions: MTCC1374
[10] = test system: Candida albicans ATCC 10231; assay: Minimum inhibitory concentration; type: cell-based; conditions: ATCC10231
[11] = 0.1% aqueous solution at 25° C.; water 72 dynes/cm; cited from earlier work

Structure (SMILES) | MIC ([1]; Bacillus subtilis ATCC 9372, read-out: MINIMUM INHIBITORY CONCENTRATION) | MIC ([1]; in Preservative Blend No 2 (10:10:80), Bacillus subtilis, read-out: Concentration of individual component at MIC of Preservative Blend No 2) | MIC ([2]; Staphylococcus aureus ATCC 6538S, read-out: MINIMUM INHIBITORY CONCENTRATION) | MIC ([2]; in Preservative Blend No 2 (10:10:80), Staphylococcus aureus, read-out: Concentration of individual component at MIC of Preservative Blend No 2) | MIC ([3]; Escherichia coli ATCC 10142, read-out: MINIMUM INHIBITORY CONCENTRATION) | MIC ([3]; in Preservative Blend No 2 (10:10:80), Escherichia coli, read-out: Concentration of individual component at MIC of Preservative Blend No 2) | Surface tension of water ([4]; 0.05% level) | Surface tension of water ([4]; 0.1% concentration) | MIC ([5]; in Preservative Blend No 2 (10:10:80), read-out: Concentration of individual component at MIC of Preservative Blend No 2) | MIC ([5]; read-out: MINIMUM INHIBITORY CONCENTRATION) | Antimicrobial activity of the ingredient alone [6] | MIC ([7]; Propionibacterium acnes MTCC 1951, read-out: MINIMUM INHIBITORY CONCENTRATION) | MIC ([7]; in Preservative Blend No 2 (10:10:80), Propionibacterium acnes, read-out: Concentration of individual component at MIC of Preservative Blend No 2) | MIC ([8]; Pseudomonas aeruginosa Immuno type IV, read-out: MINIMUM INHIBITORY CONCENTRATION) | MIC ([8]; in Preservative Blend No 2 (10:10:80), Pseudomonas aeruginosa, read-out: Concentration of individual component at MIC of Preservative Blend No 2) | MIC ([9]; Malassezia furfur MTCC 1374, read-out: MINIMUM INHIBITORY CONCENTRATION) | MIC ([9]; in Preservative Blend No 2 (10:10:80), Malassezia furfur, read-out: Concentration of individual component at MIC of Preservative Blend No 2) | MIC ([10]; Candida albicans ATCC 10231, read-out: MINIMUM INHIBITORY CONCENTRATION) | MIC ([10]; in Preservative Blend No 2 (10:10:80), Candida albicans, read-out: Concentration of individual component at MIC of Preservative Blend No 2) | Surface tension of water [11]
CCCCCCCC(=O)NCCO [Octanoyl MEA amide, N-(2-hydroxylethyl)caprylic acid amide] | > 10000 µg/mL | 200 µg/mL | > 10000 µg/mL | 300 µg/mL | > 10000 µg/mL | 300 µg/mL | 38 dynes/cm | 30 dynes/cm | 200 µg/mL | > 10000 µg/mL | did not exhibit any antibacterial activity | > 10000 µg/mL | 200 µg/mL | > 10000 µg/mL | 300 µg/mL | > 10000 µg/mL | 400 µg/mL | > 10000 µg/mL | 200 µg/mL | 
CCCCC(CC)COCC(O)CO (centres unmarked) [2-ethyl hexyl glyceryl ether, 3-(2-ethylhexyl) oxy 1,2-propanediol] |  |  |  |  |  |  |  |  |  |  |  |  |  |  |  |  |  |  |  | 32 dynes/cm
